# Data from patent publication US9606107B2, “Crk—a novel target for cancer therapy” (priority 2011, dated 2017).
# Peptide text beside a SMILES is read from it. * marks the point of attachment. Cbz = O=C(OCc1ccccc1)*; CH2F = FC*
# Columns and labels:
# Assay type in all cases: cell-based
# HeLa cells [1] = assay: Apoptosis / cell death of transiently transfected HeLa cells by IF time-lapse video microscopy with propidium iodide
# From the text: FIGS. 2A-2D illustrate photographically, graphically and in a chart that transient transfection of DN Crk induces cell death in HeLa cells. Specifically, HeLa cells were transiently transfected with wild type CrkI (pCrkI), SH2 DN (pCrkI/R38K), or SH3 DN (pCrkI/W170K) fused to C FP in the absence (FIG. 2A) or presence (FIG. 2B) of carbobenzoxy-valyl-alanyl-aspartyl-[O-methyl], or ZVAD. The tabulated results shown in FIG. 2D, were collected from multiple videos. The time to death was defined as the time of expression of transfected gene (appearance of green) to the time of PI uptake (appearance of yellow) and expressed as the mean+SEM.
# We postulated that if modification of Crk by ExoT is responsible for inducing anoikis, DN mutations in CrkI domains might also result in apoptosis, phenocopying the ExoT's cytotoxicity. To investigate this hypothesis, HeLa cells were transfected with mammalian expression vectors harboring CrkI or its SH2 (CrkI/R38K) or SH3 (CrkI/W170K) DN mutant forms, fused at their C-termini to GFP, and assessed apoptosis by IF video microscopy in the presence or absence of Z-VAD, a pancaspase inhibitor that blocks known apoptotic cell deaths. […]
# (§1) ExoT inhibits ASCS formation. […] We assessed the proliferation capacity index associated with ExoT- or CrkI apoptotic cells. […]
# HeLa cells [2] = assay: ACSC formation, release and signalling in transfected apoptotic HeLa cells (IF time-lapse microscopy)
# From the text: Specifically, HeLa cells were transiently transfected with CrkI-GFP expression vector. CrkI forms complexes (indicated […] which go through a cytoplasmic bridge from a dying cell (indicated by red arrow) and induce healthy neighbor recipient cells (indicated by yellow arrow) to divide. Six frames (FIGS. 3A-3F) from IF timelapse microscopy are shown.
# FIG. 4 graphically illustrates that ACSC formation is an active process. Specifically, the incidence of apoptotic compensatory signaling complex (ACSC) release from CrkI, CrkI-R38K (SH2 DN), and CrkI-VV170K (SH3 DN) transfected HeLa cells is shown in bar chart form.
# FIG. 5 graphically illustrates that ACSC formation is regulated differently by SH2 and SH3 domains. Specifically, the number of ACSC complexes per apoptotic CrkI, CrkI (SH2 DN), and CrkI (SH3 DN) transfected HeLa cells was determined and the results are presented in bar chart form.
# FIGS. 6A-6C photographically illustrate that the ADPRT domain of ExoT appears to inhibit ACSC. […]
# as §1
# [3] = tested on: 4T1 metastatic breast tumor cells; assay: Cytotoxicity in 4T1 metastatic breast tumor cells by PI staining, immunofluorescent timelapse microscopy
# Procedure: Specifically, in FIGS. 9A-9C, 4T1 cells were infected with PA103 strains expressing ExoT or defective in ExoT expression (Mock), or treated with 50 μM cisplatinum (Cisplatin).
# Specifically, 4T1 cells were infected with PA103 strains expressing ExoT (ExoT) […] or defective in ExoT expression (Mock) (FIG. 9A), or treated with 50 μM cisplatinum (Cisplatin) (FIG. 9C). Cytotoxicity was determined by propidium iodide (PI) staining using immunofluorescent timelapse microscopy (FIG. 9D).
# HeLa cells [4] = assay: Proliferation capacity index of transfected apoptotic cells (mitotic cells in neighbouring cells); conditions: compared to CrkI-transfected apoptotic cells; within six hours after cell rounding
# From the text: FIG. 7 graphically illustrates that ExoT blocks ACSC-induced proliferation in surrounding cells. Specifically, the proliferation capacity index of the CrkI-EGFP or ExoTEGFP transfected apoptotic cells was defined based on the capacity to induce proliferation in the neighboring cells within six hours after cell rounding.
# ExoT inhibits ASCS formation. […] If ExoT inhibited ACSC assembly and signaling, it was reasoned that there should be a reduction in the number of mitotic cells surrounding the ExoT-induced apoptotic cells. We assessed the proliferation capacity index associated with ExoT- or CrkI apoptotic cells. […] Without being bound to any particular theory, it is believed that CrkI adaptor protein functions as a scaffold for the ACSC assembly and that PA utilizes ExoT to block this process while inducing apoptosis in its target host.
# HeLa-S3 cells = assay: Cytotoxicity of ExoT-expressing PA103 infection in anoikis-resistant HeLa-S3 cells (PI uptake, video microscopy); conditions: ExoT-expressing PA103 strain, MOI about 10
# Procedure: Anoikis-sensitive (HeLa) or Anoikis-resistant (HeLa S3) cells were infected with the ExoT-expressing PA strain (PA103 AU) at an MOI of ca. 10. Host cell death was assessed by uptake of propidium iodide (PI) by simultaneous time lapse phase and fluorescent video microscopy. Video images were captured every 15 min. Representative frames are shown.
# To test this hypothesis, 1×10^5 HeLa and HeLa-S3 cells were infected with ExoT-expressing PA103 strain at MOI of about 10 and assessed apoptosis by immunofluorescent (IF) video microscopy in the presence of propidium iodide (PI) as described.
# B16 melanoma cells = assay: Cytotoxicity in B16 melanoma cells by PI staining, immunofluorescent time lapse microscopy; conditions: infection with ExoT-expressing P. aeruginosa, MOI 10, or transfection with ExoT-EGFP
# Procedure: Specifically, FIGS. 8A-8C are photographs of B16 cells infected with Pseudomonas aeruginosa strains expressing ExoT or defective in ExoT (Mock) at a multiplicity of infection (MOI) 10 or treated with 50 μM cisplatinum. Cytotoxicity was determined by measuring propidium iodide (PI) staining using immunofluorescent time lapse microscopy. FIG. 8D graphically illustrates the level of cell death, for the samples of FIGS. 8A-8C as indicated by PI staining intensity in pixels as measured from each frame using NIH Image J software.
# B16 cells were infected with Pseudomonas aeruginosa strains expressing ExoT or defective in ExoT (Mock), at multiplicity of infection (MOI) 10 or treated with 50 μM cisplatinum (FIGS. 8A-8C). Cytotoxicity was determined by measuring propidium iodide (PI) staining (red) using immunofluorescent time lapse microscopy. Still images are shown. The level of cell death, indicated by PI staining intensity (pixels), was measured from each frame using NIH Image J software (FIG. 8D). B16 melanoma cells were transiently transfected with pIRES expression vectors, harboring ExoT-EGFP or EGFP alone. Cytotoxicity was determined by PI staining using IF microscopy.
compound,measurement,setting,value
"COC(=O)C[C@H](NC(=O)[C@H](C)NC(=O)[C@@H](NC(=O)OCc1ccccc1)C(C)C)C(=O)CF [Z-VAD, carbobenzoxy-valyl-alanyl-aspartyl-[O-methyl], reference compound] (Cbz-Val-Ala-Asp(OMe)-CH2F)",apoptotic PCD,HeLa cells [1]; treatment with Z-VAD,blocked
same,ACSC formation,"HeLa cells [2]; treatment with Z-VAD, all conditions",completely blocked
"N.N.[Cl][Pt][Cl] [cisplatin, cisplatinum, reference compound]",cell death in 4T1 cells,[3]; 50 μM cisplatinum,kill 4T1 cells
ExoT,percentage of mitotic cells surrounding transfected apoptotic HeLa cells,HeLa cells [4],substantial reduction
same,cell death in 4T1 cells,[3]; infection with PA103 strain expressing ExoT,potent inducer of cell death
same,ExoT-induced cytotoxicity in HeLa-S3 cells,HeLa-S3 cells,resistant
same,cytotoxicity in B16 melanoma cells,B16 melanoma cells,potent cytotoxicity
same,apoptosis (cell death) in transfected HeLa cells,"HeLa cells [1]; transient transfection with expression vector, IF video microscopy, PI",100%
same,ACSC-like globular complexes in transfected apoptotic HeLa cells,HeLa cells [2]; transfection with ExoT fusion vectors,never observed
